# Measurements from PubChem BioAssay (NCI).
#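 The compound was tested at five concentrations on cells cultured in 96-well plates, with a 48-hour exposure period. The concentration for full growth arrest is given as TGI.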
# Tests used:
# Test in all cases: NCI tumour cell line growth inhibition, 48 h
# SNB-75 CNS = test system: SNB-75 CNS
# HCT-116 colon = test system: HCT-116 colon
# EKVX NSCLC = test system: EKVX NSCLC
# COLO 205 colon = test system: COLO 205 colon
# HS 578T breast = test system: HS 578T breast
# DU-145 prostate = test system: DU-145 prostate
# SW-620 colon = test system: SW-620 colon
# RPMI-8226 leukemia = test system: RPMI-8226 leukemia
# ACHN renal = test system: ACHN renal
# A549 NSCLC = test system: A549 NSCLC
# HT29 colon = test system: HT29 colon
# IGROV1 ovarian = test system: IGROV1 ovarian
# SNB-19 CNS = test system: SNB-19 CNS
# UACC-62 melanoma = test system: UACC-62 melanoma
# K-562 leukemia = test system: K-562 leukemia
# OVCAR-8 ovarian = test system: OVCAR-8 ovarian
# UO-31 renal = test system: UO-31 renal
# NCI/ADR-RES ovarian = test system: NCI/ADR-RES ovarian
# HCT-15 colon = test system: HCT-15 colon
# T-47D breast = test system: T-47D breast
# HOP-62 NSCLC = test system: HOP-62 NSCLC
# SF-268 CNS = test system: SF-268 CNS
# HOP-92 NSCLC = test system: HOP-92 NSCLC
# NCI-H23 lung = test system: NCI-H23 lung
# U251 CNS = test system: U251 CNS
# HCC-2998 colon = test system: HCC-2998 colon
# NCI-H460 lung = test system: NCI-H460 lung
# SK-MEL-28 melanoma = test system: SK-MEL-28 melanoma
# NCI-H522 lung = test system: NCI-H522 lung
# SR leukemia = test system: SR leukemia
# MDA-N = test system: MDA-N
# UACC-257 melanoma = test system: UACC-257 melanoma
# SF-295 CNS = test system: SF-295 CNS
# CCRF-CEM leukemia = test system: CCRF-CEM leukemia
# SK-MEL-5 melanoma = test system: SK-MEL-5 melanoma
# MOLT-4 leukemia = test system: MOLT-4 leukemia
# CAKI-1 renal = test system: CAKI-1 renal
# SN12C renal = test system: SN12C renal
# BT-549 breast = test system: BT-549 breast
# OVCAR-5 ovarian = test system: OVCAR-5 ovarian
# SK-OV-3 ovarian = test system: SK-OV-3 ovarian
# 786-0 renal = test system: 786-0 renal
# SK-MEL-2 melanoma = test system: SK-MEL-2 melanoma
# RXF 393 renal = test system: RXF 393 renal
# MDA-MB-435 = test system: MDA-MB-435
# PC-3 prostate = test system: PC-3 prostate
# KM12 colon = test system: KM12 colon
# TK-10 renal = test system: TK-10 renal
# OVCAR-4 ovarian = test system: OVCAR-4 ovarian
# HL-60(TB) leukemia = test system: HL-60(TB) leukemia
# A498 renal = test system: A498 renal
# MCF7 breast = test system: MCF7 breast
# OVCAR-3 ovarian = test system: OVCAR-3 ovarian
# LOX IMVI melanoma = test system: LOX IMVI melanoma
# NCI-H226 lung = test system: NCI-H226 lung
# SF-539 CNS = test system: SF-539 CNS
# M14 melanoma = test system: M14 melanoma
# MALME-3M melanoma = test system: MALME-3M melanoma
compound,measurement,setting,value
COC(=O)C(CC12CC3CC(CC(C3)C1)C2)NC(=O)C(N)CC(=O)O (stereo unspecified),TGI,SNB-75 CNS,> 100 µM
same,TGI,HCT-116 colon,> 100 µM
same,TGI,EKVX NSCLC,> 100 µM
same,TGI,COLO 205 colon,> 100 µM
same,TGI,HS 578T breast,> 100 µM
same,TGI,DU-145 prostate,> 100 µM
same,TGI,SW-620 colon,> 100 µM
same,TGI,RPMI-8226 leukemia,> 100 µM
same,TGI,ACHN renal,> 100 µM
same,TGI,A549 NSCLC,> 100 µM
same,TGI,HT29 colon,> 100 µM
same,TGI,IGROV1 ovarian,> 100 µM
same,TGI,SNB-19 CNS,> 100 µM
same,TGI,UACC-62 melanoma,> 100 µM
same,TGI,K-562 leukemia,> 100 µM
same,TGI,OVCAR-8 ovarian,> 100 µM
same,TGI,UO-31 renal,> 100 µM
same,TGI,NCI/ADR-RES ovarian,> 100 µM
same,TGI,HCT-15 colon,> 100 µM
same,TGI,T-47D breast,> 100 µM
same,TGI,HOP-62 NSCLC,> 100 µM
same,TGI,SF-268 CNS,> 100 µM
same,TGI,HOP-92 NSCLC,> 100 µM
same,TGI,NCI-H23 lung,> 100 µM
same,TGI,U251 CNS,> 100 µM
same,TGI,HCC-2998 colon,> 100 µM
same,TGI,NCI-H460 lung,> 100 µM
same,TGI,SK-MEL-28 melanoma,> 100 µM
same,TGI,NCI-H522 lung,> 100 µM
same,TGI,SR leukemia,> 100 µM
same,TGI,MDA-N,> 100 µM
same,TGI,UACC-257 melanoma,> 100 µM
same,TGI,SF-295 CNS,> 100 µM
same,TGI,CCRF-CEM leukemia,> 100 µM
same,TGI,SK-MEL-5 melanoma,> 100 µM
same,TGI,MOLT-4 leukemia,> 100 µM
same,TGI,CAKI-1 renal,> 100 µM
same,TGI,SN12C renal,> 100 µM
same,TGI,BT-549 breast,> 100 µM
same,TGI,OVCAR-5 ovarian,> 100 µM
same,TGI,SK-OV-3 ovarian,> 100 µM
same,TGI,786-0 renal,> 100 µM
same,TGI,SK-MEL-2 melanoma,> 100 µM
same,TGI,RXF 393 renal,> 100 µM
same,TGI,MDA-MB-435,> 100 µM
same,TGI,PC-3 prostate,> 100 µM
same,TGI,KM12 colon,> 100 µM
same,TGI,TK-10 renal,> 100 µM
same,TGI,OVCAR-4 ovarian,> 100 µM
C[C@@H]1C[C@H]2CC[C@H](O2)[C@H](C)C(=O)O[C@@H](C)C[C@@H]2CC[C@@H](O2)[C@@H](C)C(=O)O[C@H](C)C[C@H]2CC[C@H](O2)[C@H](C)C(=O)O[C@@H](C)C[C@@H]2CC[C@@H](O2)[C@@H](C)C(=O)O1,TGI,HCT-116 colon,> 100 µM
same,TGI,EKVX NSCLC,> 100 µM
same,TGI,COLO 205 colon,0.33 µM
same,TGI,HS 578T breast,54.3 µM
same,TGI,DU-145 prostate,> 100 µM
same,TGI,HL-60(TB) leukemia,0.536 µM
same,TGI,SW-620 colon,> 100 µM
same,TGI,ACHN renal,2.45 µM
same,TGI,A549 NSCLC,> 100 µM
same,TGI,HT29 colon,15.7 µM
same,TGI,IGROV1 ovarian,32.4 µM
same,TGI,SNB-19 CNS,> 100 µM
same,TGI,A498 renal,> 19.7 µM
same,TGI,MCF7 breast,> 100 µM
same,TGI,UACC-62 melanoma,> 61.3 µM
same,TGI,OVCAR-3 ovarian,> 40.1 µM
same,TGI,K-562 leukemia,> 33.8 µM
same,TGI,OVCAR-8 ovarian,> 44.6 µM
same,TGI,NCI/ADR-RES ovarian,21 µM
same,TGI,HCT-15 colon,> 100 µM
same,TGI,LOX IMVI melanoma,2.82 µM
same,TGI,T-47D breast,0.857 µM
same,TGI,HOP-62 NSCLC,4.78 µM
same,TGI,SF-268 CNS,> 51.4 µM
same,TGI,HOP-92 NSCLC,0.524 µM
same,TGI,U251 CNS,> 100 µM
same,TGI,NCI-H226 lung,> 93.5 µM
same,TGI,HCC-2998 colon,> 27.8 µM
same,TGI,NCI-H460 lung,> 100 µM
same,TGI,SF-539 CNS,> 100 µM
same,TGI,M14 melanoma,> 85 µM
same,TGI,SK-MEL-28 melanoma,> 100 µM
same,TGI,NCI-H522 lung,0.68 µM
same,TGI,SR leukemia,> 42.8 µM
same,TGI,MDA-N,> 100 µM
same,TGI,UACC-257 melanoma,0.806 µM
same,TGI,SF-295 CNS,0.659 µM
same,TGI,CCRF-CEM leukemia,16.2 µM
same,TGI,SK-MEL-5 melanoma,0.401 µM
same,TGI,MOLT-4 leukemia,22 µM
same,TGI,CAKI-1 renal,12.8 µM
same,TGI,SN12C renal,18.9 µM
same,TGI,BT-549 breast,> 100 µM
same,TGI,OVCAR-5 ovarian,> 100 µM
same,TGI,SK-OV-3 ovarian,0.567 µM
same,TGI,786-0 renal,41.8 µM
same,TGI,SK-MEL-2 melanoma,3.34 µM
same,TGI,MALME-3M melanoma,2.67 µM
same,TGI,RXF 393 renal,> 100 µM
same,TGI,MDA-MB-435,> 49.3 µM
same,TGI,PC-3 prostate,2.46 µM
same,TGI,TK-10 renal,> 48.5 µM
